Data reported in patent publication US20260294910A1, “ORAL PHARMACEUTICAL COMPOSITIONS” (Assembly Biosciences, Inc., priority 2023, published 2026).
Like-named read-outs stand apart in the source and are kept apart here.

What was measured:
[1] = human, oral; cited from earlier work
carbonic anhydrase I = test: carbonic anhydrase inhibition, CA I; format: biochemical
Excerpt: Carbonic anhydrase inhibition can be measured using a carbonic anhydrase I assay as described in Katritzky et al. (J. Med. Chem. 1987, 30:2058) and a […] as described in Iyer et al. (J. Biomol. Screen 2006, 11:782).

carbonic anhydrase II = test: carbonic anhydrase inhibition, CA II; format: biochemical
[2] = predicted human PK by allometric scaling; details: allometric scaling from multiple species
[3] = Dog IV study with and without oral charcoal administration (Example 10); format: in vivo, male non-naïve Beagle dogs; details: 0.10 mg/kg
Method: A 0.1 mg/mL solution of Compound 1 in 10% DMSO/10% Solutol HS15/80% Saline was prepared as follows: • 1) 4.63 mg Compound 1 was weighed into appropriately sized tube. • 2) 4.57 mL of DMSO was added into the tube. Vortexed for 2 minutes. • 3) 4.57 mL of Solutol HS15 was added into above tube. Vortexed for 2 minutes. • 4) 36.54 mL of saline was added. Vortex for 1 minute.
A 100 mg/mL suspension of Activated Charcoal in Saline was prepared as follows: • 1) 300 g Activated Charcoal was weighed into appropriately sized tube. • 2) 3000 mL of saline was added into the tube. • 3) Mixture was stirred for 10 minutes, and then sonicated for 10 minutes.
Two groups of Male non-naïve beagles were used for the dog PK study (n=2 per group). The prepared oral formulation was administered via oral administration with 25 gram dose of activated charcoal to Group 2 animals. Immediately after the PO administration, the prepared IV formulation was administered via 10 minutes IV infusion to both Group 1 and Group 2 animals with appropriate dosing volume to achieve the respective doses. Group 1 animals were fed before administration. Group 2 animals were fasted overnight before administration and were fed at 4 hours post oral administration.
At each time point, approximately 0.5 mL of whole blood was collected into K2EDTA tubes. […] Plasma samples were stored at approximately −80° C. until analyzed by LC-MS.

[4] = biorelevant non-sink dissolution experiment; format: physicochemical; details: 37° C.
Method: The preliminary dissolution performance of the SD samples and bulk Compound 1 was tested in a biorelevant non-sink dissolution experiment. About 0.5 mg SD samples were dispersed into 6 mL SGF medium firstly and stirred magnetically with 250 rpm at 37° C. After 30 min, 5 mL cFaSSIF-V2 (2×) medium was added into the above medium and adjusted the pH to 6.5 with 100 μL NaHCO3 (80 g/L). At each time point of 15 and 30 min in SGF and 15, 30, 60, 120 min in FaSSIF, 0.5 mL suspension was taken out and centrifuged. The supernatants were analyzed by HPLC.

[5] = test system: recurrent genital herpes (HSV); details: human, oral, 100, 200, 400 and 1200 mg vs placebo; cited from earlier work
genital HSV = details: human, oral, cited from earlier work
genital HSV-2 = details: human, oral, cited from earlier work
[6] = cited from earlier work

In the case of C[C@@H](c1ccccc1)N(CC(=O)Nc1ccc(-c2csc(N)n2)cc1)C(=O)c1ccncc1 [BILS-179 BS], the “adverse events in early clinical trials” value [1] is given as “suspended in early clinical trials due to adverse events”.

In the case of Cc1nc(N2CCCN(c3ccc(-c4cc(F)ccc4F)cc3)C2=O)sc1S(N)(=O)=O [Compound 1, 2-(3-(2′,5′-difluoro-[1,1′-biphenyl]-4-yl)-2-oxotetrahydropyrimidin-1(2H)-yl)-4-methylthiazole-5-sulfonamide], the “carbonic anhydrase I inhibition” value (carbonic anhydrase I) is reported as “no or low levels of carbonic anhydrase inhibition”, the “carbonic anhydrase II inhibition” value (carbonic anhydrase II) is reported as “no or low levels of carbonic anhydrase inhibition” and the predicted human clearance [2] is reported as 0.06 L/h. The “clearance without versus with oral charcoal” value [3] was “slower”, the “overall exposure without versus with oral charcoal” value [3] was “higher” and the “Concentration in FaSSIF at 45 min” value ([4]; FaSSIF (pH 6.5), 45 min) was 0.14 µg/mL. The “Concentration in FaSSIF at 60 min” value ([4]; FaSSIF (pH 6.5), 60 min) was 0.12 µg/mL, the “Concentration in FaSSIF at 90 min” value ([4]; FaSSIF (pH 6.5), 90 min) was 0.14 µg/mL and the “Concentration in FaSSIF at 150 min” value ([4]; FaSSIF (pH 6.5), 150 min) was 0.12 µg/mL. The “Concentration in SGF at 15 min” value ([4]; SGF (pH 1.7), 15 min) was 0.10 µg/mL and the “Concentration in SGF at 30 min” value ([4]; SGF (pH 1.7), 30 min) was 0.07 µg/mL.

For Cc1cccc(C)c1N(CC(=O)Nc1ccc(-c2ncon2)cc1)C(=O)C1CCS(=O)(=O)CC1 [amenamevir], the “time to lesion healing” value [5] is given as “only significantly different between the very highest 1200 mg single dose group and the placebo-tested group” and the “adverse events in early clinical trials” value [1] is given as “suspended from early HSV clinical trials due to adverse events”.

For Cc1nc(N(C)C(=O)Cc2ccc(-c3ccccn3)cc2)sc1S(N)(=O)=O [pritelivir, N-Methyl-N-(4-methyl-5-sulfamoyl-1,3-thiazol-2-yl)-2-[4-(pyridin-2-yl)phenyl]acetamide], the “break-through shedding at 75 mg daily” value (genital HSV; 75 mg daily) is listed as “break-through shedding remained”, the antiviral effect (genital HSV; daily 75 mg vs weekly 400 mg) is listed as “An oral daily dose of 75 mg had the greatest antiviral effect and this was found to be superior to the less frequently administered weekly dose of 400 mg” and the “number of days with lesions” value (genital HSV; genital herpes) is listed as “reduced the number of days with lesions”. The “rate of genital HSV shedding” value (genital HSV; high doses, 28 days) was “reduced the rate of genital HSV shedding”, the “genital swabs with HSV shedding” value (genital HSV-2; 100 mg daily after 400 mg loading dose, 28 days) was 2.4% and the “free fraction of total plasma concentration” value [6] was 2-3%. The protein binding ([6]; plasma) was 97-98%.

For CC(C)[C@H](N)C(=O)OCCOCn1cnc2c(=O)[nH]c(N)nc21 [valacyclovir], the “genital swabs with HSV shedding” value (genital HSV-2; 500 mg daily) is given as 5.3%.
